According to US11396518B2, “Solid forms of thiophene derivatives” (TIANJIN HEMAY PHARMACEUTICAL CO., LTD., priority 2018, dated 2022):

Assays:
Assay type in all cases: physicochemical
[1] = Dissolution rate in water; conditions: about 25 mg in 900 mL of water, 37° C., rotating speed 100/minute
Protocol: An amorphous solid form of (S)—N-[5-[1-(3-ethoxy-4-methoxyphenyl)-2-(methylsulfonyl)ethyl]-4,6-dioxo-5,6-dihydro-4H-thieno[3,4-c]pyrrole-1-yl]acetamide prepared according to the process in Example 1 was tested.
About 25 mg of the amorphous solid form of (S)—N-[5-[1-(3-ethoxy-4-methoxyphenyl)-2-(methylsulfonyl)ethyl]-4,6-dioxo-5,6-dihydro-4H-thieno[3,4-c]pyrrole-1-yl]acetamide was added to 900 mL of water. The mixture was stirred at a rotating speed of 100/minute at 37° C. for 90 minutes. The supernatant was filtered and diluted. The concentration of the diluted solution (a mg/mL) was determined by ultraviolet spectrophotometer. The dissolution rate was calculated according to the formula 900a/25×100%.

[2] = Grinding stability (XRPD after grinding)
Protocol: An amorphous solid form of (S)—N-[5-[1-(3-ethoxy-4-methoxyphenyl)-2-(methylsulfonyl)ethyl]-4,6-dioxo-5,6-dihydro-4H-thieno[3,4-c]pyrrole-1-yl]acetamide prepared according to the process of Example 1 was ground in a glass mortar for 5 minutes. The ground samples were tested with XRPD.

[3] = Pressure stability (DSC after tablet pressing); conditions: tablet press machine with single punch, tablet diameter 6 mm, hardness 25-30 N
Protocol: An amorphous solid form of (S)—N-[5-[1-(3-ethoxy-4-methoxyphenyl)-2-(methylsulfonyl)ethyl]-4,6-dioxo-5,6-dihydro-4H-thieno[3,4-c]pyrrole-1-yl]acetamide was pressed by tablet press machine with single punch. The diameter of the tablet was 6 mm and the hardness was 25-30 N. DSC test was carried out on pressed powder.

[4] = Hygroscopicity (XRPD after moisture absorption at RH=80%)
Protocol: Hygroscopicity of an amorphous solid form of (S)—N-[5-[1-(3-ethoxy-4-methoxyphenyl)-2-(methylsulfonyl)ethyl]-4,6-dioxo-5,6-dihydro-4H-thieno[3,4-c]pyrrole-1-yl]acetamide was studied. The amorphous solid form of (S)—N-[5-[1-(3-ethoxy-4-methoxyphenyl)-2-(methylsulfonyl)ethyl]-4,6-dioxo-5,6-dihydro-4H-thieno[3,4-c]pyrrole-1-yl]acetamide was placed in a drier containing saturated ammonium chloride solution (RH=80%) until weight was balanced. The crystal form was tested with XRPD.
An amorphous solid form of (S)—N-[5-[1-(3-ethoxy-4-methoxyphenyl)-2-(methylsulfonyl)ethyl]-4,6-dioxo-5,6-dihydro-4H-thieno[3,4-c]pyrrole-1-yl]acetamide prepared according to the process of Example 1 was tested.

Dissolution Rate (%) ([1]; Time 0 min): 0%
Dissolution Rate (%) ([1]; Time 15 min): 38.3%
Dissolution Rate (%) ([1]; Time 30 min): 54.9%
Dissolution Rate (%) ([1]; Time 45 min): 72.8%
Dissolution Rate (%) ([1]; Time 60 min): 63.7%
Crystal Form after Grinding ([2]; Grinding in a glass mortar for 5 minutes): Amorphous
Grinding stability (conclusion in words) ([2]; ground in a glass mortar for 5 minutes): good grinding stability
DSC curve of pressed powder compared with FIG. 2 [3]: substantially identical
Pressure stability (conclusion in words) [3]: good stability
Moisture absorption stability (conclusion in words) ([4]; RH=80% until weight was balanced): good moisture absorption stability
Crystal Form after Absorbing Moisture ([4]; drier with saturated ammonium chloride solution (RH=80%) until weight was balanced): Amorphous
Compound: CCOc1cc([C@@H](CS(C)(=O)=O)N2C(=O)c3csc(NC(C)=O)c3C2=O)ccc1OC [amorphous solid form, (S)—N-[5-[1-(3-ethoxy-4-methoxyphenyl)-2-(methylsulfonyl)ethyl]-4,6-dioxo-5,6-dihydro-4H-thieno[3,4-c]pyrrole-1-yl]acetamide]
